Results published in PubChem BioAssay AID328 (DTP/NCI, 2004).
Values joined by “and” are separate entries in the source; they are usually repeats but may differ in a detail not shown here. Equal values may be shown once. Toxic doses and inconclusive results are not listed.

Tested on: BDF1 mice, P388 leukemia ip, median survival T/C
Assay: NCI In Vivo Anticancer Drug Screen. Data for tumor model P388 Leukemia (intraperitoneal) in B6D2F1 (BDF1) mice
Conditions: endpoint: median survival time, higher = longer survival
Outline: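 In tumour-bearing mice, survival after compound treatment is set against the vehicle group and given as a quotient.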

[1] = dose: 50.0 mg/kg/injection, schedule: Q04DX003 (ip), vehicle: saline with Tween-80
[2] = dose: 100.0 mg/kg/injection, schedule: Q04DX003 (ip), vehicle: saline with Tween-80
[3] = dose: 200.0 mg/kg/injection, schedule: Q04DX003 (ip), vehicle: saline with Tween-80
[4] = dose: 25.0 mg/kg/injection, schedule: Q04DX003 (ip), vehicle: Klucel (hydroxypropylcellulose) (HPC)
[5] = dose: 100.0 mg/kg/injection, schedule: Q01DX009 (ip), vehicle: saline with Tween-80
[6] = dose: 200.0 mg/kg/injection, schedule: Q01DX009 (ip), vehicle: saline with Tween-80
[7] = dose: 400.0 mg/kg/injection, schedule: Q01DX009 (ip), vehicle: saline with Tween-80
[8] = dose: 400.0 mg/kg/injection, schedule: Q04DX003 (ip), vehicle: saline with Tween-80
[9] = dose: 3.0 mg/kg/injection, schedule: Q01DX009 (ip), vehicle: saline
[10] = dose: 100.0 mg/kg/injection, schedule: Q01DX009 (ip), vehicle: saline
[11] = dose: 200.0 mg/kg/injection, schedule: Q01DX009 (ip), vehicle: saline
[12] = dose: 50.0 mg/kg/injection, schedule: Q01DX009 (ip), vehicle: saline with Tween-80
[13] = dose: 100.0 mg/kg/injection, schedule: Q01DX001 (ip), vehicle: saline sonified
[14] = dose: 200.0 mg/kg/injection, schedule: Q01DX001 (ip), vehicle: saline sonified
[15] = dose: 12.5 mg/kg/injection, schedule: Q04DX003 (ip), vehicle: saline
[16] = dose: 25.0 mg/kg/injection, schedule: Q04DX003 (ip), vehicle: saline

COC1(OC)C2(Cl)CC(c3ccc(Cl)cc3)C1(Cl)C(Cl)=C2Cl (centres undefined)
T/C [1]: 100 % of control
T/C [2]: 95 % of control
T/C [3]: 90 % of control

CCOC(=O)/C=C/C(C(=O)OCC)C(=O)OCC
T/C (dose: 75.0 mg/kg/injection, schedule: Q04DX003 (ip), vehicle: saline with Tween-80): 95 % of control
T/C (dose: 150.0 mg/kg/injection, schedule: Q04DX003 (ip), vehicle: saline with Tween-80): 120 % of control

CC(=O)Nc1cc(C)cc(CO)c1C
T/C (dose: 25.0 mg/kg/injection, schedule: Q04DX003 (ip), vehicle: saline with Tween-80): 86 % of control
T/C [1]: 96 % of control
T/C [2]: 93 % of control
T/C [3]: 88 % of control

N#CSCc1ccc(Cl)c(CSC#N)c1
T/C (dose: 8.0 mg/kg/injection, schedule: Q01DX009 (ip), vehicle: Klucel (hydroxypropylcellulose) (HPC)): 110 % of control
T/C (dose: 12.0 mg/kg/injection, schedule: Q01DX009 (ip), vehicle: Klucel (hydroxypropylcellulose) (HPC)): 117 % of control
T/C (dose: 12.5 mg/kg/injection, schedule: Q01DX009 (ip), vehicle: Klucel (hydroxypropylcellulose) (HPC)): 160 % of control
T/C (dose: 16.5 mg/kg/injection, schedule: Q04DX003 (ip), vehicle: Klucel (hydroxypropylcellulose) (HPC)): 115 % of control
T/C [4]: 115 % of control
T/C (dose: 37.0 mg/kg/injection, schedule: Q04DX003 (ip), vehicle: Klucel (hydroxypropylcellulose) (HPC)): 123 % of control

COc1ccc(C=NCCN=Cc2ccc(OC)c(OC)c2)cc1OC
T/C [5]: 105 % of control
T/C [2]: 95 % of control
T/C [6]: 100 % of control
T/C [3]: 91 % of control
T/C [7]: 100 % of control
T/C [8]: 91 % of control

COc1ccc(C(=O)CC(C#N)c2ccc3c(c2)OCO3)cc1OC (centres undefined)
T/C [5]: 90 % of control
T/C [6]: 100 % of control
T/C [7]: 95 % of control

COc1ccccc1NC(=O)Nc1ccc(N(C)C)cc1
T/C [2]: 90 % of control
T/C [3]: 118 % of control
T/C [8]: 90 % of control

O=S(=O)(O)O.[W]
T/C (dose: 0.75 mg/kg/injection, schedule: Q01DX009 (ip), vehicle: saline): 96 % of control
T/C [9]: 90 % of control

C=CCOCC1CO1 (centres undefined)
T/C (dose: 12.5 mg/kg/injection, schedule: Q01DX009 (ip), vehicle: saline): 99 % of control
T/C (dose: 25.0 mg/kg/injection, schedule: Q01DX009 (ip), vehicle: saline): 106 % of control
T/C (dose: 50.0 mg/kg/injection, schedule: Q01DX009 (ip), vehicle: saline): 100 % of control
T/C [10]: 109 % of control
T/C [11]: 117 % of control

Cc1nc(N(C)C)c2cnn(-c3ccccc3)c2n1
T/C (dose: 25.0 mg/kg/injection, schedule: Q01DX009 (ip), vehicle: Klucel (hydroxypropylcellulose) (HPC)): 105 % of control
T/C (dose: 50.0 mg/kg/injection, schedule: Q01DX009 (ip), vehicle: Klucel (hydroxypropylcellulose) (HPC)): 105 % of control
T/C (dose: 100.0 mg/kg/injection, schedule: Q01DX009 (ip), vehicle: Klucel (hydroxypropylcellulose) (HPC)): 105 % of control

c1ccc(N=NC2=NN(c3ccccc3)CS2)cc1
T/C (dose: 25.0 mg/kg/injection, schedule: Q01DX009 (ip), vehicle: saline with Tween-80): 116 % of control
T/C [12]: 116 % of control

CCCCCCCCCCCCSCCCCSCCCCCCCCCCCC
T/C [13]: 100 % of control
T/C [14]: 86 % of control

O=C(c1ccccc1Cl)n1c(Cl)c(/C=N\Nc2cccc([N+](=O)[O-])c2)c2ccccc21
T/C (dose: 100.0 mg/kg/injection, schedule: Q04DX002 (ip), vehicle: Klucel (hydroxypropylcellulose) (HPC)): 90 % of control
T/C (dose: 200.0 mg/kg/injection, schedule: Q04DX002 (ip), vehicle: Klucel (hydroxypropylcellulose) (HPC)): 89 % of control
T/C (dose: 400.0 mg/kg/injection, schedule: Q04DX002 (ip), vehicle: Klucel (hydroxypropylcellulose) (HPC)): 90 % of control

ClCCN(CCCl)CCNc1ccnc2cc(Cl)ccc12
T/C (dose: 0.13 mg/kg/injection, schedule: Q01DX009 (ip), vehicle: saline): 105 % of control
T/C (dose: 0.5 mg/kg/injection, schedule: Q01DX009 (ip), vehicle: saline): 100 % of control
T/C (dose: 1.0 mg/kg/injection, schedule: Q04DX003 (ip), vehicle: saline): 172 % of control
T/C (dose: 1.32 mg/kg/injection, schedule: Q01DX009 (ip), vehicle: saline): 154 % of control
T/C (dose: 2.0 mg/kg/injection, schedule: Q01DX009 (ip), vehicle: saline): 154 % of control
T/C (dose: 2.0 mg/kg/injection, schedule: Q04DX003 (ip), vehicle: saline): 109 % of control
T/C [9]: 181 % of control
T/C (dose: 4.0 mg/kg/injection, schedule: Q04DX003 (ip), vehicle: saline): 154 % of control
T/C (dose: 6.0 mg/kg/injection, schedule: Q04DX003 (ip), vehicle: saline): 159 % of control
T/C [15]: 163 % of control
T/C [16]: 86 % of control

S=c1sc(-c2ccccc2)c[se]1
T/C (dose: 25.0 mg/kg/injection, schedule: Q01DX009 (ip), vehicle: saline + Tween-80 + alcohol): 107 % of control
T/C (dose: 50.0 mg/kg/injection, schedule: Q01DX009 (ip), vehicle: saline + Tween-80 + alcohol): 105 % of control

O=C(N[C@H](CO)[C@H](O)c1ccc([N+](=O)[O-])cc1)C(Cl)Cl
T/C [5]: 118 % of control

O=C(Nc1ccc([N+](=O)[O-])cc1)Nc1ccc([N+](=O)[O-])cc1 (tested in a mixture with another compound)
T/C [10]: 109 % of control
T/C (dose: 100.0 mg/kg/injection, schedule: Q04DX003 (ip), vehicle: saline): 112 % of control and 104 % of control
T/C [11]: 122 % of control
T/C (dose: 200.0 mg/kg/injection, schedule: Q04DX003 (ip), vehicle: saline): 100 % of control and 91 % of control
T/C (dose: 400.0 mg/kg/injection, schedule: Q01DX009 (ip), vehicle: saline): 118 % of control
T/C (dose: 400.0 mg/kg/injection, schedule: Q04DX003 (ip), vehicle: saline): 112 % of control and 100 % of control

O=C1N(Cl)C(=O)C(c2ccccc2)(c2ccc(F)cc2)N1Cl (centres undefined)
T/C [4]: 87 % of control
T/C (dose: 50.0 mg/kg/injection, schedule: Q04DX003 (ip), vehicle: Klucel (hydroxypropylcellulose) (HPC)): 100 % of control
T/C (dose: 100.0 mg/kg/injection, schedule: Q04DX003 (ip), vehicle: Klucel (hydroxypropylcellulose) (HPC)): 91 % of control

Cc1c2cc3c(cc2cc2c4cc5c(cc4cc[n+]12)OCO5)OCO3 (tested in a mixture with another compound)
T/C (dose: 3.0 mg/kg/injection, schedule: Q04DX003 (ip), vehicle: saline): 159 % of control
T/C (dose: 3.13 mg/kg/injection, schedule: Q01DX009 (ip), vehicle: saline): 98 % of control
T/C (dose: 5.56 mg/kg/injection, schedule: Q04DX003 (ip), vehicle: saline): 150 % of control and 177 % of control
T/C (dose: 6.25 mg/kg/injection, schedule: Q01DX009 (ip), vehicle: saline): 89 % of control
T/C (dose: 6.25 mg/kg/injection, schedule: Q04DX003 (ip), vehicle: saline): 170 % of control
T/C (dose: 8.33 mg/kg/injection, schedule: Q04DX003 (ip), vehicle: saline): 172 % of control and 200 % of control
T/C [15]: 150 % of control and 177 % of control and 190 % of control
T/C (dose: 18.7 mg/kg/injection, schedule: Q04DX003 (ip), vehicle: saline): 113 % of control
T/C [16]: 95 % of control

O=[n+]1c2ccccc2n([O-])c2ccccc21.[Cl][Cu][Cl]
T/C (dose: 6.25 mg/kg/injection, schedule: Q04DX003 (ip), vehicle: saline with Tween-80): 101 % of control
T/C (dose: 12.5 mg/kg/injection, schedule: Q04DX003 (ip), vehicle: saline with Tween-80): 116 % of control

N#Cc1ncc(C(Cl)(Cl)Cl)nc1Cl
T/C [12]: 110 % of control
T/C [1]: 105 % of control
T/C [5]: 120 % of control
T/C [2]: 115 % of control and 118 % of control
T/C [3]: 120 % of control

COc1ccc2[nH]c3cc(Cl)ccc3c(=O)c2c1
T/C [5]: 100 % of control
T/C [6]: 100 % of control
T/C [7]: 90 % of control

O=C(Nc1ccc2ccccc2c1)c1ccccc1
T/C [13]: 95 % of control
T/C [14]: 100 % of control
T/C (dose: 400.0 mg/kg/injection, schedule: Q01DX001 (ip), vehicle: saline sonified): 100 % of control
